Common to all, as to format: cell-based
Assay [1] concerns Escherichia coli IFO 12713. The note with it: IFO 12713, 24 h. How it is done:
(§1) Escherichia coli IFO 12713 • Escherichia coli 0157:H7 sakai • Klebsiella pneumoniae ATCC 4352 • Pseudomonas aeruginosa ATCC 10145
(§2) That is, each sample was diluted with a liquid bouillon medium (mfd. by DIFCO, product name “NUTRIENT BROTH Dehydrated”) to a peptide concentration of 500, 250, 125, 62.5, 31.3, 15.6, 7.8, 3.9, 1.9, 1.0 or 0.5 […] and dispensed in 150 μl portions into a 96 well microplate. On the other hand, a cell suspension (about 2×10^6 cells/ml) prepared by statically culturing each strain at 37° C. for 18 hours in LB Broth, Lennox (mfd. by DIFCO) was inoculated into each well of the 96 well microplate in an amount equivalent to that of the drug solution (the aforementioned peptide-containing bouillon medium). After the inoculation, the culturing was started in an incubator of 37° C., and the presence of bacterial growth was examined based on the turbidity after 24 hours. The minimum peptide concentration by which increase in the turbidity due to bacterial growth was not observed at the time of the measurement was defined as the MIC in this Example.

For assay [2], the system named is Pseudomonas aeruginosa ATCC 10145. The following applies: ATCC 10145, 24 h. The procedure:
as §1, §2

Assay [3] concerns Klebsiella pneumoniae ATCC 4352. The note with it: ATCC 4352, 24 h. The procedure: as §1, §2
For assay [4], the system named is Salmonella enteritidis IFO 3313. The following applies: IFO 3313, 24 h. How it is done: as §2
Assay [5] has as its system Staphylococcus aureus IFO 12732. The following applies: IFO 12732, 24 h. The procedure:
(§3) Gram-Positive Bacteria: • Staphylococcus aureus IFO 12732 • Staphylococcus aureus COL1 (MRSA) • Bacillus cereus IFO 3001 • Bacillus subtilis ATCC 6633 • Micrococcus luteus IFO 12708
as §2

The next assay has as its system Bacillus cereus IFO 3001. The note with it: IFO 3001, 24 h. The procedure: as §3, §2
Assay [6] relates to Bacillus subtilis ATCC 6633. The following applies: ATCC 6633, 24 h. How it is done: as §3, §2
For assay [7], the system named is Micrococcus luteus IFO 12708. The note with it: IFO 12708, 24 h. The procedure:
as §3, §2

In assay [8] the test system is Staphylococcus aureus COL1 (MRSA). The note with it: COL1, 24 h. How it is done: as §3, §2

Ends that are not written are not given here.

As for “RLLRKWWWKRLL-NH2 (C-terminus assumed) [Sample 1, RLLRKWWWKRLL]”, the MIC in assay [1] was found to be 15.6 µg/mL; in [2], 15.6 µg/mL; in [3], 7.8 µg/mL; in assay [4] it was 3.9 µg/mL; in assay [5], 1.95 µg/mL; in the assay on Bacillus cereus IFO 3001 it was 62.5 µg/mL. The MIC was 1.95 µg/mL in [6] and 3.9 µg/mL in assay [7].
“RRLLRKWWWKRLL-NH2 (C-terminus assumed) [Sample 2, RRLLRKWWWKRLL]”: the MIC in assay [1] was 7.8 µg/mL; in assay [3], 3.9 µg/mL; in [4], 3.9 µg/mL; in [5], 1.95 µg/mL; in assay [8] it was 15.6 µg/mL; in the assay with Bacillus cereus IFO 3001, 62.5 µg/mL. Besides, the figures for the MIC in assay [6] and in assay [7] were 1.95 µg/mL and 3.9 µg/mL, respectively.
Consider “RRRLLRKWWWKRLL-NH2 (C-terminus assumed) [Sample 3, RRRLLRKWWWKRLL]”, for which the MIC worked out at 15.6 µg/mL in assay [1]; 15.6 µg/mL in [2]; 3.9 µg/mL in [3]; 3.9 µg/mL in assay [4]; 1.95 µg/mL in [5]; 62.5 µg/mL in the assay with Bacillus cereus IFO 3001. The MIC came to 1.95 µg/mL in [6] and 7.8 µg/mL in assay [7].
For the substance “LLRKWWWKRLL-NH2 (C-terminus assumed) [compound 1, LLRKWWWKRLL, reference compound]”, the MIC worked out at 15.6 µg/mL in assay [4]; 1.95 µg/mL in assay [5]; 62.5 µg/mL against Bacillus cereus IFO 3001; 0.98 µg/mL in [6]; 7.8 µg/mL in [7].
